What all share (type): functional
The test system of experiment [1] is Mycobacterium tuberculosis. The experiment is described as follows: Antimycobacterial activity against pyrazinamide-resistant Mycobacterium tuberculosis H37Rv ATCC 35828 after 16 to 24 hrs by alamar blue assay.
Experiment [2] concerns Mycobacterium tuberculosis. The experiment is described as follows: Antimycobacterial activity against ethionamide-resistant Mycobacterium tuberculosis H37Rv ATCC 35830 after 16 to 24 hrs by alamar blue assay.
Experiment [3] deals with Mycobacterium tuberculosis. The experiment is described as follows: Antimycobacterial activity against isoniazid-, rifampin-, ethambutol-resistant Mycobacterium tuberculosis after 16 to 24 hrs by alamar blue assay. Background: Resazurin is reduced to fluorescent resorufin, in cell work by metabolically active cells.
Experiment [4] relates to Mycobacterium tuberculosis. Briefly: Antimycobacterial activity against isoniazid-, rifampin-, ofloxacin-, streptomycin-resistant Mycobacterium tuberculosis after 16 to 24 hrs by alamar blue assay.
Experiment [5] concerns Mycobacterium tuberculosis. Briefly: Antimycobacterial activity against isoniazid-, rifampin-, ofloxacin-, ethambutol-, streptomycin-resistant Mycobacterium tuberculosis after 16 to 24 hrs by alamar blue assay.
The subject of experiment [6] is Mycobacterium tuberculosis. The experiment is described as follows: Antimycobacterial activity against isoniazid-, rifampin-resistant Mycobacterium tuberculosis after 16 to 24 hrs by alamar blue assay.
The test system of experiment [7] is Mycobacterium tuberculosis. The experiment is described as follows: Antimycobacterial activity against isoniazid-, rifampin-, ofloxacin-, ethambutol-resistant Mycobacterium tuberculosis after 16 to 24 hrs by alamar blue assay.
The subject of experiment [8] is Mycobacterium tuberculosis. Briefly: Antimycobacterial activity against isoniazid-, rifampin-, streptomycin-resistant Mycobacterium tuberculosis after 16 to 24 hrs by alamar blue assay.
In experiment [9] the test system is Mycobacterium tuberculosis. Briefly: Antimycobacterial activity against isoniazid-, rifampin-, streptomycin-, ethambutol-resistant Mycobacterium tuberculosis after 16 to 24 hrs by alamar blue assay.

≈ marks a conversion by molar mass, not a printed value. Some results are limits rather than exact numbers.

As a reminder, the MIC is the least concentration at which growth counts as inhibited. A higher MIC goes with weaker potency. Turning to `COc1ccc2cc1-c1cc(ccc1O)C[C@@H]1NCCc3cc4c(cc31)Oc1c(c(OC)cc3c1[C@H](C2)N(C)CC3)O4`, the MIC in experiment [1] and in experiment [2] was 6.2 µg/mL (≈ 11 µM) throughout.
Turning to `COc1ccc2cc1-c1cc(cc(Br)c1O)C[C@H]1c3cc4c(cc3CCN1C)Oc1c(OC)cc3c(c1O4)[C@H](C2)N(C)CC3`, the minimum inhibitory concentration (MIC) in experiment [1] and in experiment [2] was 3.1 µg/mL (≈ 4.73 µM) each time.
As for `CC[C@@H](CO)NCCN[C@@H](CC)CO` [ETHAMBUTOL], the minimal inhibitory concentration (MIC) in experiment [3] was at least 8 µg/mL; in experiment [4], at most 2 µg/mL; in [5], at least 8 µg/mL; in experiment [6], at most 2 µg/mL; in [7], at least 8 µg/mL; in experiment [8] it was at most 2 µg/mL. The same compound gave a minimal inhibitory concentration (MIC) in experiment [9] of at least 8 µg/mL.
Regarding `NNC(=O)c1ccncc1` [ISONIAZID], the minimum inhibitory concentration (MIC) in experiment [3], in experiment [4], in experiment [5], in experiment [6], in experiment [7] and in experiment [8] was at least 2 µg/mL throughout. The minimal inhibitory concentration (MIC) in experiment [9] is at least 2 µg/mL.
On to `CC1COc2c(N3CCN(C)CC3)c(F)cc3c(=O)c(C(=O)O)cn1c23` (stereo not drawn) [OFLOXACIN], for which the minimum inhibitory concentration (MIC) was at most 2 µg/mL in experiment [3]; at least 4 µg/mL in experiment [4]; at least 4 µg/mL in experiment [5]; at most 2 µg/mL in experiment [6]; at least 4 µg/mL in [7]; at most 2 µg/mL in experiment [8]. Further, the minimum inhibitory concentration (MIC) in experiment [9] is at most 2 µg/mL.
As for `CO[C@H]1/C=C/O[C@@]2(C)Oc3c(C)c(O)c4c(O)c(c(/C=N/N5CCN(C)CC5)c(O)c4c3C2=O)NC(=O)/C(C)=C\C=C\[C@H](C)[C@H](O)[C@@H](C)[C@@H](O)[C@@H](C)[C@H](OC(C)=O)[C@@H]1C` [RIFAMPIN], the minimum inhibitory concentration (MIC) in [3], in experiment [4], in experiment [5], in [6], in [7] and in experiment [8] was at least 2 µg/mL each time. Besides, the minimal inhibitory concentration (MIC) in [9] is at least 2 µg/mL.
`CN[C@@H]1[C@H](O[C@H]2[C@H](O[C@H]3[C@H](O)[C@@H](O)[C@H](N=C(N)N)[C@@H](O)[C@@H]3N=C(N)N)O[C@@H](C)[C@]2(O)C=O)O[C@@H](CO)[C@H](O)[C@H]1O` [STREPTOMYCIN]: the MIC was at most 2 µg/mL in experiment [3]; at least 8 µg/mL in experiment [4]; at least 8 µg/mL in experiment [5]; at most 2 µg/mL in experiment [6]; at most 2 µg/mL in experiment [7]; at least 8 µg/mL in experiment [8]. In experiment [9], this compound yielded an MIC of at least 8 µg/mL.
`COc1ccc2cc1-c1cc(ccc1O)C[C@H]1c3cc4c(cc3CCN1C)Oc1c(OC)cc3c(c1O4)[C@@H](C2)N(C)CC3` [TILIACORINE]: the MIC in experiment [1] stood at 6.2 µg/mL (≈ 10.8 µM); in experiment [2], 3.1 µg/mL (≈ 5.38 µM).
On the same counts, the results for `COc1ccc2cc1-c1cc(ccc1O)C[C@H]1c3cc4c(cc3CCN1C)Oc1c(OC)cc3c(c1O4)[C@H](C2)N(C)CC3` [TILIACORININE] are 6.2 µg/mL (≈ 10.8 µM) and 3.1 µg/mL (≈ 5.38 µM).

Source of the values: ChEMBL document CHEMBL2016451, “Antimycobacterial activity of bisbenzylisoquinoline alkaloids from Tiliacora triandra against multidrug-resistant isolates of Mycobacterium tuberculosis” (Bioorg Med Chem Lett, 2012).
